Assay results taken from patent US8629143B2, “Potassium channel modulators” (AbbVie Inc., priority 2009, dated 2014).

Biological target: T1, KCNQ 2/3 channels (HEK293 cells stably expressing human KCNQ2 and KCNQ3 subunits) (Homo sapiens, UniProt O43525+O43526)
T1 construct: expressed in transfected cells; host or cells: HEK293
Assay: KCNQ2/3 channel activation, thallium flux FLIPR assay with BTC-AM dye
Assay type: cell-based
Settings: for Emax: HEK293, read-out: Max. %; for EC50: HEK293 cells expressing human KCNQ2 and KCNQ3, thallium flux, FLIPR
Protocol: The following example describes the assay that can be used to identify compounds that activate KCNQ 2/3 channels.
HEK293 cells stably expressing human KCNQ2 and KCNQ3 subunits were seeded in 96-well, black-walled, clear-bottomed, poly-D-lysine coated plates (BD Biosciences, Bedford, Mass.) at a density of 1×10^5 cells per well 24 hours before the assay. On the assay day, BTC-AM dye (Invitrogen, Carlsbad, Calif.) was loaded into the cells by replacing the cell culture medium with 55 μL/well of 3 μg/mL dye in DPBS. Dye loading was allowed to proceed for 2 hours at room temperature and then cells were washed twice with 50 μL/well of assay buffer (in mM: 10 HEPES pH 7.3, 5 glucose, 140 Na-gluconate, 2.5 K-gluconate, 3.6 Ca-gluconate, 2 MgSO4, 0.1 Ouabain) to remove unloaded dye. Cells were incubated in 50 μL of assay buffer before loading onto a FLIPR system (Molecular Devices, Sunnyvale, Calif.). Various concentrations of compounds to be assayed were added to the cells in 50 μL of assay buffer and incubated for 4 minutes. The fluorescence signal was initiated by adding 100 μL of assay buffer containing 6 mM TlNO3 and 10 mM K2SO4. Fluors were excited using the 488-nm line of an argon laser and emission was filtered using a 540±30 nm bandpass filter. Fluorescent signals were recorded for 3 minutes. Sums of the responses over basal responses were plotted versus concentrations of test compounds to obtain an EC50 value. The maximum response for each test compound was determined relative to the response produced by 10 μM retigabine. The maximum response of retigabine at 10 μM was set at 100%.

[1] = maximum response relative to the response produced by 10 μM retigabine (set at 100%)

Compound	Emax [1] [%]	EC50 [nM]	Max. % [1] [%]
O=C(CC1CC2CCC1C2)Nn1nc(C(F)(F)F)c2ccccc2c1=O (racemic) [Example 58, (±)-2-(exo-bicyclo[2.2.1]heptan-2-yl)-N-[1-oxo-4-(trifluoromethyl)phthalazin-2(1H)-yl]acetamide]	137	100 to 500	
CC(C)(C)c1nn(NC(=O)CC2CC3CCC2C3)c(=O)c2ccccc12 (racemic) [Example 63, (±)-2-(exo-bicyclo[2.2.1]heptan-2-yl)-N-(4-tert-butyl-1-oxophthalazin-2(1H)-yl)acetamide]	160	< 100	
O=C(C[C@H]1C[C@@H]2CC[C@H]1C2)Nn1nc(C2CCC2)c2ccccc2c1=O (racemic) [Example 68, (±)-2-(exo-bicyclo[2.2.1]heptan-2-yl)-N-(4-cyclobutyl-1-oxophthalazin-2(1H)-yl)acetamide]	164	< 100	
O=C(CC1CC2CCC1C2)Nn1nc(C2CCCC2)c2ccccc2c1=O (racemic) [Example 71, (±)-2-(exo-bicyclo[2.2.1]heptan-2-yl)-N-(4-cyclopentyl-1-oxophthalazin-2(1H)-yl)acetamide]	162	< 100	
O=C(CC1CC2CCC1C2)Nn1nc(C2CCCCC2)c2ccccc2c1=O (racemic) [Example 74, (±)-2-(exo-bicyclo[2.2.1]heptan-2-yl)-N-(4-cyclohexyl-1-oxophthalazin-2(1H)-yl)acetamide]	165	< 100	
O=C(CC1CC2CCC1C2)Nn1nc(-c2ccc(C(=O)O)cc2)c2ccccc2c1=O (racemic) [Example 78, (±)-4-(3-{[(exo-bicyclo[2.2.1]heptan-2-yl)acetyl]amino}-4-oxo-3,4-dihydrophthalazin-1-yl)benzoic acid]	140	1000 to 10000	
COC(=O)c1ccc(-c2nn(NC(=O)C[C@H]3C[C@@H]4CC[C@H]3C4)c(=O)c3ccccc23)cc1 (racemic) [Example 79, (±)-methyl 4-(3-{[exo-bicyclo[2.2.1]hept-2-ylacetyl]amino}-4-oxo-3,4-dihydrophthalazin-1-yl)benzoate]	144	< 100	
CN(C)C(=O)c1ccc(-c2nn(NC(=O)CC3CC4CCC3C4)c(=O)c3ccccc23)cc1 (racemic) [Example 81, (±)-4-(3-{[exo-bicyclo[2.2.1]hept-2-ylacetyl]amino}-4-oxo-3,4-dihydrophthalazin-1-yl)-N,N-dimethylbenzamide]	50	> 10000	
O=C(C[C@H]1C[C@@H]2CC[C@H]1C2)Nn1nc(-c2ccc(Br)cc2)c2ccccc2c1=O (racemic) [Example 84, (±)-2-(exo-bicyclo[2.2.1]heptan-2-yl)-N-[4-(4-bromophenyl)-1-oxophthalazin-2(1H)-yl]acetamide]	134	< 100	
CC(C)c1nn(NC(=O)Cc2ccc(Cl)cc2)c(=O)c2ccccc12 [Example 1, 2-(4-chlorophenyl)-N-(4-isopropyl-1-oxophthalazin-2(1H)-yl)acetamide]	125	100 to 500	
O=C(CC12CC3CC(CC(C3)C1)C2)Nn1nc(-c2ccc(Br)cc2)c2ccccc2c1=O [Example 2, 2-(1-adamantyl)-N-[4-(4-bromophenyl)-1-oxophthalazin-2(1H)-yl]acetamide]	193	100 to 500	
O=C(Cc1ccc(Cl)cc1)Nn1nc(-c2ccccc2)c2ccccc2c1=O [Example 4, 2-(4-chlorophenyl)-N-(1-oxo-4-phenylphthalazin-2(1H)-yl)acetamide]	157	100 to 500	
CC(C)c1nn(NC(=O)Cc2cc(F)cc(F)c2)c(=O)c2ccccc12 [Example 5, 2-(3,5-difluorophenyl)-N-(4-isopropyl-1-oxophthalazin-2(1H)-yl)acetamide]	136	100 to 500	
CC(C)c1nn(NC(=O)CC23CC4CC(CC(C4)C2)C3)c(=O)c2ccccc12 [Example 6, 2-(1-adamantyl)-N-(4-isopropyl-1-oxophthalazin-2(1H)-yl)acetamide]	200	< 100	
O=C(CC12CC3CC(CC(C3)C1)C2)Nn1nc(-c2ccccc2)c2cccnc2c1=O [Example 7, 2-(1-adamantyl)-N-(8-oxo-5-phenylpyrido[2,3-d]pyridazin-7(8H)-yl)acetamide]	136	1000 to 10000	

More lines, now with the values ahead:

Emax [1] [%]	EC50 [nM]	Max. % [1] [%]	Compound
154	< 100		O=C(CC1CC2CCC1C2)Nn1nc(-c2ccc(Cl)cc2)c2ccccc2c1=O (racemic) [Example 113, (±)-2-(exo-bicyclo[2.2.1]hept-2-yl)-N-[4-(4-chlorophenyl)-1-oxophthalazin-2(1H)-yl]acetamide]
150	< 100		O=C(CC1CC2CCC1C2)Nn1nc(-c2cccc(Cl)c2)c2ccccc2c1=O (racemic) [Example 125, (±)-2-(exo-bicyclo[2.2.1]hept-2-yl)-N-[4-(3-chlorophenyl)-1-oxophthalazin-2(1H)-yl]acetamide]
150	< 100		O=C(CC1CC2CCC1C2)Nn1nc(-c2ccc(F)cc2)c2ccccc2c1=O (racemic) [Example 131, (±)-2-(exo-bicyclo[2.2.1]hept-2-yl)-N-[4-(4-fluorophenyl)-1-oxophthalazin-2(1H)-yl]acetamide]
192	< 100		O=C(C[C@H]1C[C@@H]2CC[C@H]1C2)Nn1nc(-c2ccc(F)cc2F)c2ccccc2c1=O (racemic) [Example 134, (±)-2-(exo-bicyclo[2.2.1]hept-2-yl)-N-[4-(2,4-difluorophenyl)-1-oxophthalazin-2(1H)-yl]acetamide]
130	< 100		O=C(C[C@H]1C[C@@H]2CC[C@H]1C2)Nn1nc(Cc2ccccc2)c2ccccc2c1=O (racemic) [Example 141, (±)-N-(4-benzyl-1-oxophthalazin-2(1H)-yl)-2-(exo-bicyclo[2.2.1]hept-2-yl)acetamide]
139	< 100		O=C(CC1CC2CCC1C2)Nn1nc(Cc2ccc(Cl)cc2)c2ccccc2c1=O (racemic) [Example 144, (±)-2-(exo-bicyclo[2.2.1]hept-2-yl)-N-[4-(4-chlorobenzyl)-1-oxophthalazin-2(1H)-yl]acetamide]
141	< 100		COc1ccc(-c2nn(NC(=O)CC3CC4CCC3C4)c(=O)c3ccccc23)cc1 (racemic) [Example 151, (±)-2-(exo-bicyclo[2.2.1]hept-2-yl)-N-[4-(4-methoxyphenyl)-1-oxophthalazin-2(1H)-yl]acetamide]
	< 100	165	Cc1ccc(C)c(-c2nn(NC(=O)CC3CC4CCC3C4)c(=O)c3ccccc23)c1 (racemic) [Example 155, (±)-2-(exo-bicyclo[2.2.1]hept-2-yl)-N-[4-(2,5-dimethylphenyl)-1-oxophthalazin-2(1H)-yl]acetamide]
157	< 100		Cc1ccc(-c2nn(NC(=O)CC3CC4CCC3C4)c(=O)c3ccccc23)c(C)c1 (racemic) [Example 160, (±)-2-(exo-bicyclo[2.2.1]hept-2-yl)-N-[4-(2,4-dimethylphenyl)-1-oxophthalazin-2(1H)-yl]acetamide]
177	< 100		Cc1ccc(-c2nn(NC(=O)CC3CC4CCC3C4)c(=O)c3ccccc23)cc1C (racemic) [Example 163, (±)-2-(exo-bicyclo[2.2.1]hept-2-yl)-N-[4-(3,4-dimethylphenyl)-1-oxophthalazin-2(1H)-yl]acetamide]
144	< 100		O=C(CC1CC2CCC1C2)Nn1nc(CCc2ccccc2)c2ccccc2c1=O (racemic) [Example 167, (±)-2-(exo-bicyclo[2.2.1]hept-2-yl)-N-[1-oxo-4-(2-phenylethyl)phthalazin-2(1H)-yl]acetamide]
134	100 to 500		CC(C)c1ccc(-c2nn(NC(=O)C[C@H]3C[C@@H]4CC[C@H]3C4)c(=O)c3ccccc23)cc1 (racemic) [Example 168, (±)-2-(exo-bicyclo[2.2.1]hept-2-yl)-N-[4-(4-isopropylphenyl)-1-oxophthalazin-2(1H)-yl]acetamide]
195	< 100		O=C(C[C@H]1C[C@@H]2CC[C@H]1C2)Nn1nc(C2(c3ccccc3)CC2)c2ccccc2c1=O (racemic) [Example 172, (±)-2-(exo-bicyclo[2.2.1]hept-2-yl)-N-[1-oxo-4-(1-phenylcyclopropyl)phthalazin-2(1H)-yl]acetamide]
154	< 100		O=C(CC1CC2CCC1C2)Nn1nc(-c2ccc(Cl)cc2)c2c(F)ccc(F)c2c1=O (racemic) [Example 184, (±)-2-(exo-bicyclo[2.2.1]hept-2-yl)-N-[4-(4-chlorophenyl)-5,8-difluoro-1-oxophthalazin-2(1H)-yl]acetamide]
103	500 to 1000		O=C(Nn1nc(-c2ccc(Cl)cc2)c2ccccc2c1=O)[C@@H]1C[C@H]1c1ccccc1 (relative stereo) [Example 120, trans-N-[4-(4-chlorophenyl)-1-oxophthalazin-2(1H)-yl]-2-phenylcyclopropanecarboxamide]
